Legend:
Integrin alpha-4/beta-1 [1] = molecular target: T1, Integrin alpha-4/beta-1 (Homo sapiens, UniProt P05556+P13612); assay: Inhibition of alpha4-beta1 (very late) antigen binding with VCAM-1 immunoglobulin; type: protein-complex assay
Integrin alpha-4/beta-1 [2] = molecular target: T1, Integrin alpha-4/beta-1; assay: Inhibition of alpha4-beta1 (very late) antigen binding with VCAM-1 immunoglobulin plus 5% human plasma; type: cell-free
Integrin alpha-4/beta-7 = molecular target: T2, Integrin alpha-4/beta-7 (Homo sapiens, UniProt P13612+P26010); assay: Inhibition of alpha4-beta7 antigen with MAdCAM immunoglobulin; type: protein-complex assay
T2 sequence (P13612 whole entry): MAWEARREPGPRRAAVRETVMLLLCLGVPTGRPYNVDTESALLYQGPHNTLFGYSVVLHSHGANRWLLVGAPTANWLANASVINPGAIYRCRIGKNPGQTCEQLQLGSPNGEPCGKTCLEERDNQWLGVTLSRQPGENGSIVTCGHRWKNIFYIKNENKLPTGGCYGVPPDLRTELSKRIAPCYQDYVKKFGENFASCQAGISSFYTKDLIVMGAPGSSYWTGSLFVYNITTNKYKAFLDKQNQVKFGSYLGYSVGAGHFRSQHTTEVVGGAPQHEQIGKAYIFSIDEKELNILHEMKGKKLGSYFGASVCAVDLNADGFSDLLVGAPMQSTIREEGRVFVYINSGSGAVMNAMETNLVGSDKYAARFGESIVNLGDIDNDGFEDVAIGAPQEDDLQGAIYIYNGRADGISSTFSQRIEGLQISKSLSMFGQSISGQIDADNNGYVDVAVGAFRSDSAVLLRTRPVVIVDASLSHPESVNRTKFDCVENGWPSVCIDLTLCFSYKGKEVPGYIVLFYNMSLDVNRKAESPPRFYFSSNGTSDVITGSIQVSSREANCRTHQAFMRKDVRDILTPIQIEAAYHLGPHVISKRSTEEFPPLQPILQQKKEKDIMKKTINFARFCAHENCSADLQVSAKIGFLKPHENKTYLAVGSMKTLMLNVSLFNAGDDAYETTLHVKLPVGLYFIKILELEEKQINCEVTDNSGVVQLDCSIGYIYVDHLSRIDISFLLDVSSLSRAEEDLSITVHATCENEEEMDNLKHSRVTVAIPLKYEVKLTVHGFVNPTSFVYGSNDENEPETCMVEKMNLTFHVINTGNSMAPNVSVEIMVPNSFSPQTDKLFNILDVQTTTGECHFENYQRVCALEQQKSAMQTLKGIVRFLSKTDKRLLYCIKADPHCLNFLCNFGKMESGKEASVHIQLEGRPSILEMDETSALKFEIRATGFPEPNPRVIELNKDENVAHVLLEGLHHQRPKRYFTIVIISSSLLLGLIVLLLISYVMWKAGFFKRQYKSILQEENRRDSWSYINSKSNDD
T2 sequence (P26010 whole entry): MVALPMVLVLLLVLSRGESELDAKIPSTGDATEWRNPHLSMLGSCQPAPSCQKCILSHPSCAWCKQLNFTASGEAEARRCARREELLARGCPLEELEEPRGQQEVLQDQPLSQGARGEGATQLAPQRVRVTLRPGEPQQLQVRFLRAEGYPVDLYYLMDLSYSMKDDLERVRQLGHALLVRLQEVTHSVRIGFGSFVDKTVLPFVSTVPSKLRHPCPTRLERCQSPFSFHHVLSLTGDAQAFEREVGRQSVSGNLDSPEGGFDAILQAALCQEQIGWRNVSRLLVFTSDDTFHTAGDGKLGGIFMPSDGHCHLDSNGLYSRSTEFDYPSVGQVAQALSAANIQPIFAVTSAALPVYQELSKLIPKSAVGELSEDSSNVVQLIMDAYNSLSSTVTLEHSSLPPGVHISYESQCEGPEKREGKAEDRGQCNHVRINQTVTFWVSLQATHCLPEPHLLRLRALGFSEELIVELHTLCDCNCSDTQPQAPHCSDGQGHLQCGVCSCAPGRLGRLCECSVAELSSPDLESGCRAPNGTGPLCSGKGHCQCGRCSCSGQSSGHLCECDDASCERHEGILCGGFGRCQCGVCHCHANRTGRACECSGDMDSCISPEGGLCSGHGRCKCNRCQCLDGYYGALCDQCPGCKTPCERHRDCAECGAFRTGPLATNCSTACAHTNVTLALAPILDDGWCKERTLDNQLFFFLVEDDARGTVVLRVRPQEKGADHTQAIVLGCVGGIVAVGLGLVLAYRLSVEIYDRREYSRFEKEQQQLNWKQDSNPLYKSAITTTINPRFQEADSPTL

[3] = molecular target: Integrin alpha-4/beta-7 (Homo sapiens) (UniProt P13612+P26010); assay: Selectivity for alpha4-beta7 to that of alpha4-beta1; type: protein-complex assay

T1 sequence (P05556 whole entry, one chain of several): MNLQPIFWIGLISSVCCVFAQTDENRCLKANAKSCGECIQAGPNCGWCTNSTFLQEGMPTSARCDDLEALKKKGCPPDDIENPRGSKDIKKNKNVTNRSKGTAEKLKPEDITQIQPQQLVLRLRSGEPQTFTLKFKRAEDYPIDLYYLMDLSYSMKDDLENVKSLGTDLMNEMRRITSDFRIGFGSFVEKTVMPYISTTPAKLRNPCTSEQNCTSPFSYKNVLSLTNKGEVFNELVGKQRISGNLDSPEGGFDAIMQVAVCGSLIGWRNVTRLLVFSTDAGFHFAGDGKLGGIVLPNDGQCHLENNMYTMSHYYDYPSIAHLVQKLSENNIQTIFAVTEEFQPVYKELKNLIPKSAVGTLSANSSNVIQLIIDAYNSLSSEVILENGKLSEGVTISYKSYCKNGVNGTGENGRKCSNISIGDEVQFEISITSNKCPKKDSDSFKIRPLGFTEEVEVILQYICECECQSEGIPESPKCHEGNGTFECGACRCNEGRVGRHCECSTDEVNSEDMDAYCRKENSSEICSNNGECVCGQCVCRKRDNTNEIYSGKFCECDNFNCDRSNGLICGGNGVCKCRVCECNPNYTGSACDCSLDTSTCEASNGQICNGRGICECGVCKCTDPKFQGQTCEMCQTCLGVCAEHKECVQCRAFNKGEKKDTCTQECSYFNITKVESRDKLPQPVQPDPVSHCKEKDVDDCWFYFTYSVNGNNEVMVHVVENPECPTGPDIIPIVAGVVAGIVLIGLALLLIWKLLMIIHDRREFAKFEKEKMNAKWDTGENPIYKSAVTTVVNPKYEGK

Structure (SMILES) | IC50 (Integrin alpha-4/beta-1 [1]) [nM] | IC50 (Integrin alpha-4/beta-1 [2]) [nM] | IC50 (Integrin alpha-4/beta-7) [nM] | Ratio [3]
COc1cc(OC)cc([C@]2(C(=O)N[C@@H](Cc3ccc(-c4c(OC)cccc4OC)cc3)C(=O)O)CCCO2)c1 | 1.48 | 5.77 |  | 
COc1ccc(CNC2CC(C)O[C@@]2(C)C(=O)N[C@@H](Cc2ccc(-c3c(OC)cccc3OC)cc2)C(=O)O)cc1 (some centres not stated) | 3.4 | 14.9 | 733 | 225
COc1cccc(OC)c1-c1ccc(C[C@H](NC(=O)[C@]2(C)OC(C)CC2=O)C(=O)O)cc1 (some centres not stated) | 0.7 | 1.32 | 24.5 | 35
COc1ccccc1-c1ccc(C[C@H](NC(=O)[C@@]2(C(=O)N3CCCC3)CCCO2)C(=O)O)cc1 | 1.33 | 4.42 | 22.9 | 17
COc1ccccc1-c1ccc(C[C@H](NC(=O)[C@@]2(c3cc(C(F)(F)F)cc(C(F)(F)F)c3)CCCO2)C(=O)O)cc1 | 4.62 | 1100 | 499 | 108
COc1ccccc1-c1ccc(C[C@H](NC(=O)[C@@]2(C)CCCO2)C(=O)O)cc1 | 3.9 | 60.6 | 45.3 | 12
COc1ccccc1-c1ccc(C[C@H](NC(=O)[C@@]2(C(=O)N3CCOCC3)CCCO2)C(=O)O)cc1 | 0.54 | 1 | 8.49 | 16
COc1ccccc1-c1ccc(C[C@H](NC(=O)[C@@]2(c3ccc(C(C)(C)C)cc3)CCCO2)C(=O)O)cc1 | 1.8 | 29 | 99.5 | 55
COc1ccccc1-c1ccc(C[C@H](NC(=O)[C@@]2(c3ccccc3)CCCO2)C(=O)O)cc1 | 2.2 |  | 56.4 | 26
COc1cccc(OC)c1-c1ccc(C[C@H](NC(=O)[C@@]2(c3cccc(N)c3)CCCO2)C(=O)O)cc1 | 0.92 | 5.63 | 26.6 | 29
COc1cccc(OC)c1-c1ccc(C[C@H](NC(=O)[C@@]2(CCCCN(C)C)CCCO2)C(=O)O)cc1 | 16.3 | 22.9 | 226 | 14
COc1cccc(OC)c1-c1ccc(C[C@H](NC(=O)[C@@]2(CCO)CCCO2)C(=O)O)cc1 | 1.56 | 7.59 | 16.3 | 10
COc1ccccc1-c1ccc(C[C@H](NC(=O)[C@@]2(c3cccc(C(F)(F)F)c3)CCCO2)C(=O)O)cc1 | 4.65 | 290 | 327 | 70
COc1cccc(OC)c1-c1ccc(C[C@H](NC(=O)[C@@]2(c3ccc(Cl)cc3)CCCO2)C(=O)O)cc1 | 0.55 | 4.75 | 52.2 | 95
COc1cccc(OC)c1-c1ccc(C[C@H](NC(=O)[C@@]2(c3cccc([N+](=O)[O-])c3)CCCO2)C(=O)O)cc1 | 0.23 | 0.95 | 19.6 | 85
COCCCC[C@]1(C(=O)N[C@@H](Cc2ccc(-c3c(OC)cccc3OC)cc2)C(=O)O)CCCO1 | 0.62 | 1.27 | 22 | 35
COc1cccc(OC)c1-c1ccc(C[C@H](NC(=O)[C@@]2(c3nc4ccccc4o3)CCCO2)C(=O)O)cc1 | 0.42 | 2.4 | 377 | 897
COc1cccc(OC)c1-c1ccc(C[C@H](NC(=O)[C@@]2(CC(C)C)CCCO2)C(=O)O)cc1 | 1.15 | 4.02 | 22.3 | 19
COc1cccc(OC)c1-c1ccc(C[C@H](NC(=O)[C@@]2(CCCO)CCCO2)C(=O)O)cc1 | 2.12 | 3.36 | 35.3 | 17
COc1cccc(OC)c1-c1ccc(C[C@H](NC(=O)[C@@]2(c3ccc(Cl)c([N+](=O)[O-])c3)CCCO2)C(=O)O)cc1 | 0.47 | 2.41 | 45.6 | 97

The remaining compounds from weak to strong by IC50 (Integrin alpha-4/beta-1 [1]), led by results:

IC50 (Integrin alpha-4/beta-1 [1]) [nM] | IC50 (Integrin alpha-4/beta-1 [2]) [nM] | IC50 (Integrin alpha-4/beta-7) [nM] | Ratio [3] | Structure (SMILES)
255 | 870 | 245 | 1 | COc1cccc(OC)c1-c1ccc(C[C@H](NC(=O)[C@@]2(CCCCO)CCCO2)C(=O)O)cc1
15.5 | 19.5 | 80 | 5 | COc1cccc(OC)c1-c1ccc(C[C@H](NC(=O)[C@@]2(CCN(C)C)CCCO2)C(=O)O)cc1
9.18 |  | 67 | 7 | COc1cccc(OC)c1-c1ccc(C[C@H](NC(=O)[C@@]2(CCCN(C)C)CCCO2)C(=O)O)cc1
6.18 | 343 | 374 | 60 | COc1ccccc1-c1ccc(C[C@H](NC(=O)[C@@]2(c3ccc(C)c(C)c3)CCCO2)C(=O)O)cc1
5.31 | 120 | 504 | 95 | COc1ccccc1-c1ccc(C[C@H](NC(=O)[C@@]2(c3ccc(C(F)(F)F)cc3)CCCO2)C(=O)O)cc1
4.3 | 48 | 45.7 | 11 | COc1ccccc1-c1ccc(C[C@H](NC(=O)[C@@]2(c3ccc(F)cc3)CCCO2)C(=O)O)cc1
4.09 | 46 | 275 | 67 | COc1ccccc1-c1ccc(C[C@H](NC(=O)[C@@]2(c3ccc(Cl)cc3)CCCO2)C(=O)O)cc1
4.06 | 19 | 51.1 | 13 | CCOC(=O)[C@]1(C(=O)N[C@@H](Cc2ccc(-c3ccccc3OC)cc2)C(=O)O)CCCO1
3.62 | 53 | 232 | 64 | COc1ccccc1-c1ccc(C[C@H](NC(=O)[C@@]2(c3ccc(Br)cc3)CCCO2)C(=O)O)cc1
2.6 |  | 149 | 57 | COc1cccc(OC)c1-c1ccc(C[C@H](NC(=O)[C@]2(C)OC(C)CC2N)C(=O)O)cc1 (some centres not stated)
0.7 | 1.99 | 16.1 | 40 | COCC[C@]1(C(=O)N[C@@H](Cc2ccc(-c3c(OC)cccc3OC)cc2)C(=O)O)CCCO1
0.7 | 7.46 | 6.1 | 9 | COc1cccc(OC)c1-c1ccc(C[C@H](NC(=O)[C@@]2(C(C)C)CCCO2)C(=O)O)cc1
0.67 |  | 11.2 | 22 | COc1cccc(OC)c1-c1ccc(C[C@H](NC(=O)[C@@]2(C(=O)C(C)C)CCCO2)C(=O)O)cc1
0.59 | 1 | 23.2 | 39 | COc1ccccc1-c1ccc(C[C@H](NC(=O)[C@@]2(C(=O)N3CCN(C)CC3)CCCO2)C(=O)O)cc1
0.48 | 1.46 | 13.8 | 29 | CCCC[C@]1(C(=O)N[C@@H](Cc2ccc(-c3c(OC)cccc3OC)cc2)C(=O)O)CCCO1
0.31 |  | 14.5 | 47 | COc1cccc(OC)c1-c1ccc(C[C@H](NC(=O)[C@@]2(c3ncc(C)s3)CCCO2)C(=O)O)cc1

— ChEMBL document CHEMBL1135130, “Substituted tetrahydrofuroyl-1-phenylalanine derivatives as potent and specific VLA-4 antagonists” (Bioorg Med Chem Lett, 2002)
